The text below walks through data of US20060128724A1, “Pyrazole-substituted aminoheteroaryl compounds as protein kinase inhibitors” (AGOURON PHARMACEUTICALS, INC., priority 2004, published 2006).

Broadly, the pKi is −log10 of the Ki, conventionally taken in molar units.

pKi: −log10 of the molar value.

For one test, the target named is T1, c-MET (HGFR) (Homo sapiens, UniProt P08581).
T1 construct: purchased Upstate 14-526
T1 sequence (P08581 974-1390 limits assumed): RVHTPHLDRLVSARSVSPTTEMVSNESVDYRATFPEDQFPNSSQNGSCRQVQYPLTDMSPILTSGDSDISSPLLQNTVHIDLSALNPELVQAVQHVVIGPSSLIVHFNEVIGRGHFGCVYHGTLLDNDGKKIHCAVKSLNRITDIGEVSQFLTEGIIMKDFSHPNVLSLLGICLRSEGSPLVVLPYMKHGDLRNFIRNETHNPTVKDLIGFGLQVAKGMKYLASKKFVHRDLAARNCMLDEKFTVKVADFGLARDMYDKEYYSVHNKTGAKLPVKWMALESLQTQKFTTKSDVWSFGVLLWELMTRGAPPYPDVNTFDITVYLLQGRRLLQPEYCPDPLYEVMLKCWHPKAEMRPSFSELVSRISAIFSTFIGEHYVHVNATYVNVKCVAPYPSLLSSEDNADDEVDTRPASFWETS
Nature of the test: HGFR Continuous-Coupled Spectrophotometric Assay. Format: biochemical. The settings on record: Met-2 substrate peptide, 50 nM HGFR, 37° C.; read-out: Met Ki. The source says: The following in vitro assay may be used to determine the level of activity and effect of the different compounds of the present invention on one or more of the PKs. Similar assays can be designed along the same lines for any PK using techniques well known in the art.
The general procedure is as follows: compounds and kinase assay reagents are introduced into test wells. The assay is initiated by addition of the kinase enzyme. Enzyme inhibitors reduce the measured activity of the enzyme.
In the continuous-coupled spectrophotometric assay the time-dependent production of ADP by the kinase is determined by analysis of the rate of consumption of NADH by measurement of the decrease in absorbance at 340 nm. As the PK produces ADP it is re-converted to ATP by reaction with phosphoenol pyruvate and pyruvate kinase. Pyruvate is also produced in this reaction. Pyruvate is subsequently converted to lactate by reaction with lactate dehydrogenase, which simultaneously converts NADH to NAD.
HGFR Continuous-Coupled Spectrophotometric Assay
This assay analyzes the tyrosine kinase activity of HGFR on the Met-2 substrate peptide, a peptide derived from the activation loop of the HGFR.
• 1. […] Dissolve up in 200 mM HEPES, pH 7.5 at 10 mM stock. • 3. 1 M PEP (phospho-enol-pyruvate) in 200 mM HEPES, pH 7.5 • 4. 100 mM NADH (B-Nicotinamide Adenine Dinucleotide, Reduced Form) in 200 mM HEPES, pH 7.5 • 5. 4 M MgCl2 (Magnesium Chloride) in ddH2O • 6. 1 M DTT (Dithiothreitol) in 200 mM HEPES, pH 7.5 • 7. 15 Units/mL LDH (Lactic Dehydrogenase) • 8. 15 Units/mL PK (Pyruvate Kinase) • 9. 5M NaCl dissolved in ddH2O • 10. Tween-20 (Protein Grade) 10% Solution • 11. 1 M HEPES buffer: (N-[2-Hydroxethyl]piperazine-N-[2-ethanesulfonic acid]) Sodium Salt. Dissolve in ddH2O, adjust pH to 7.5, bring volume to 1 L. Filter at 0.1 μm. • 12. […] 100% DMSO (SIGMA) • 14. […] Beckman DU-650 w/micro cell holders • 18. Beckman 4-position micro cell cuvette Procedure:
Prep Dilution Buffer (DB) for Enzyme (For 30 mL prep) • 1. DB final concentration is 2 mM DTT, 25 mM NaCl2, 5 mM MgCl2, 0.01% Tween-20, and 50 mM HEPES buffer, pH 7.5. • 2. Make up 50 mM HEPES by adding 1.5 mL 1 M HEPES into 28.1 mL of ddH2O. Add rest of the reagents. Into 50 mL conical vial, add 60 μL of 1M DTT, 150 μL 5M NaCl2, 150 μL 1M MgCl2, and 30 μL of 10% Tween-20 to give total volume of 30 mL. • 3. […] Aliquot out DB at 1 mL/tube and label tubes as “DB HGFR” • 5. Note: This can be prepared and stored ahead of time. • 6. Freeze un-used aliquots in microcentrifuge tubes at −20° C. freezer. […] For compound dilution plate, add 4 μL of 10 mM stock into column 1 of plate, and bring volume to 100 μL with 100% DMSO. • 2. Set up the Precision 2000 dilution method. A final concentration of 200 μM compound in 50% DMSO, 100 mM HEPES (1:2 serial dilution). Prep Coupled Enzymatic Buffer:
1. Final concentration in assay:
• 2. For a 10 mL reaction buffer add 10 μL of 1M PEP, 33 μL of 100 mM NADH, 50 μL of 4M MgCl2, 20 μL of 1M DTT, 6 μL of 500 mM ATP, and 500 μL of 10 mM Met-2 peptide into 100 mM HEPES buffer pH 7.5 and vortex/mix. • 3. Add coupling enzymes, LDH and PK, into reaction mix. Mix by gentle inversion. Running Samples
1. Spectrophotometer settings:
• 2. Add 85 μL of CE reaction mix into each well of assay plate. • 3. Add 5 μL of diluted compound into a well of the assay plate. • 4. Add 5 μL of 50% DMSO for negative control into last column of assay plate. • 5. Mix with multi-channel pipettor or orbital shaker. • 6. Pre-incubate for 10 minutes at 37° C. • 7. Add 10 μL of 500 nM HGFR to each well of assay plate; the final HGFR concentration is 50 nM in a total final volume of 100 μL. • 8. Measure activity for 10 minutes at λ=340 nm and 37° C.
Turning to `CC(Oc1cc(-c2cnn(C3CCNCC3)c2)cnc1N)c1c(Cl)ccc(O)c1Cl` (centres unmarked) [Example 136, 3-{1-[2-Amino-5-(1-piperidin-4-yl-1H-pyrazol-4-yl)-pyridin-3-yloxy]-ethyl}-2,4-dichloro-phenol], the pKi was 7.38. The same measure, in the same setting: for “4-(4-{6-Amino-5-[1- (2,6-dichloro-3-fluoro- phenyl)-ethoxy]-pyridin- 3-yl}-pyrazoI-1-yl)- piperidine-1- carboxylic acid dimethylamide [Example 120]” the value was 7.80. As for `CC(Oc1cc(-c2cnn(C3CCNCC3)c2)cnc1N)c1c(Cl)c(F)cc(F)c1Cl` (centres unmarked) [Example 146, 3-[1-(2,6-Dichloro-3,5-difluoro-phenyl)-ethoxy]-5-(1-piperidin-4-yl-1H-pyrazol-4-yl)-pyridin-2-ylamine], the negative-log Ki (pKi) was 7.52. `CC(Oc1cc(-c2cnn(CC3CCOCC3)c2)cnc1N)c1c(Cl)ccc(F)c1Cl` (centres unmarked) [Example 132, 3-[1-(2,6-Dichloro-3-fluoro-phenyl)-ethoxy]-5-[1-(tetraydro-pyran-4-ylmethyl)-1H-pyrazol-4-yl]-pyridin-2-amine]: the pKi was 7.38. Turning to `COc1ccc(Cl)c(C(C)Oc2cc(-c3cnn(C4CCNCC4)c3)cnc2N)c1Cl` (centres unmarked) [Example 138, 3-(1-(2,6-Dichloro-3-methoxy-phenyl)-ethoxy]-5-(1-piperidin-4-yl-1H-pyrazol-4-yl)-pyridin-2-ylamine], the negative-log Ki (pKi) is 8.00.

Consider `CC(C)Oc1ccc(Cl)c(C(C)Oc2cc(-c3cnn(C4CCNCC4)c3)cnc2N)c1Cl` (centres unmarked) [Example 140, 3-[1-(2,6-Dichloro-3-isopropoxy-phenyl)-ethoxy]-5-(1-piperidin-4-yl-1H-pyrazol-4-yl)-pyridin-2-ylamine], for which the pKi was 7.43. In the case of `CC(Oc1cc(Br)cnc1N)c1c(Cl)c(F)cc(OCCN(C)C)c1Cl` (centres unmarked) [Example 153, 5-Bromo-3-{1-[2,6-dichloro-3-(2-dimethylamino-ethoxy)-5-fluoro-phenyl]-ethoxy}-pyridin-2-ylamine], the pKi was 6.09.

The test is the same for the next values; noted with them: Met-2 substrate peptide, 50 nM HGFR, 37° C.; read-out: c-Met Ki.
For the compound `Cc1noc(C)c1Cn1cc(-c2cnc(N)c(OC(C)c3c(Cl)ccc(F)c3Cl)c2)cn1` (centres unmarked) [Example 93, 3-[1-(2,6-dichloro-3-fluorophenyl)ethoxy]-5-{1-[(3,5-dimethylisoxazol-4-yl)methyl]-1H-pyrazol-4-yl}pyridin-2-amine], the negative-log Ki (pKi) was 7.16. For `CNC(=O)C1CC(n2cc(-c3cnc(N)c(OC(C)c4c(Cl)ccc(F)c4Cl)c3)cn2)CN1` (centres unmarked) [Example 90, 4-(4-{6-Amino-5-[1-(2,6-dichloro-3-fluoro-phenyl)-ethoxy]-pyridin-3-yl}-pyrazol-1-yl)-pyrrolidine-2-carboxylic acid methylamide], the negative-log Ki (pKi) is 7.47. On to `CC(Oc1cc(-c2cnn(C3CC4CCC(C3)N4C)c2)cnc1N)c1c(Cl)ccc(F)c1Cl` (centres unmarked) [Example 115, 3-[1-(2,6-dichloro-3-fluorophenyl)ethoxy]-5-[1-(8-methyl-8-azabicyclo[3.2.1]oct-3-yl)-1H-pyrazol-4-yl]pyridin-2-amine], for which the negative logarithm of the Ki (pKi) is 8.05.

With `CC(Oc1cc(-c2cnn(CC3CN(CC4CC4)C3)c2)cnc1N)c1c(Cl)ccc(F)c1Cl` (centres unmarked) [Example 112, 5-(1-{[1-(cyclopropylmethyl)azetidin-3-yl]methyl}1H-pyrazol-4-yl)-3-[1-(2,6-dichloro-3-fluorophenyl)ethoxy]pyridin-2-amine], the pKi was 7.33. For `CC(Oc1cc(-c2cnn(C[C@H]3CCCN3)c2)cnc1N)c1c(Cl)ccc(F)c1Cl` (stereo partly drawn) [Example 63, 3-[1-(2,6-Dichloro-3-fluoro-phenyl)-ethoxy]-5-(1-(R)-1-pyrrolidin-2-ylmethyl-1H-pyrazol-4-yl)-pyridin-2-ylamine], the pKi is 7.14. The same measure, in the same setting: for `CC(Oc1cc(-c2cnn(CC3CC4CCC3O4)c2)cnc1N)c1c(Cl)ccc(F)c1Cl` (centres unmarked) [Example 28, 3-[1-(2,6-Dichloro-3-fluoro-phenyl)-ethoxy]-5-[1-(7-oxa-bicyclo[2.2.1]hept-2-ylmethyl)-1H-pyrazol-4-yl]-pyridin-2-ylamine] the value was 7.22. Same read-out and setting: the result for `CC(Oc1cc(-c2cnn(CC(C)(C)C)c2)cnc1N)c1c(Cl)ccc(F)c1Cl` (centres unmarked) [Example 23, 3-[1-(2,6-Dichloro-3-fluoro-phenyl)-ethoxy]-5-[1-(2,2-dimethyl-propyl)-1H-pyrazol-4-yl]-pyridin-2-ylamine] reads 6.92; that for `CC(Oc1cc(-c2cnn(C3CCN(C(=O)CO)CC3)c2)cnc1N)c1c(Cl)ccc(F)c1Cl` (centres unmarked) [Example 40, 1-[4-(4-{6-Amino-5-[1-(2,6-dichloro-3-fluoro-phenyl)-ethoxy]-pyridin-3-yl}-pyrazol-1-yl)-piperidin-1-yl]-2-hydroxy-ethanone], 8.00; that for `CC(C)Cn1cc(-c2cnc(N)c(OC(C)c3c(Cl)ccc(F)c3Cl)c2)cn1` (centres unmarked) [Example 22, 3-[1-(2,6-Dichloro-3-fluoro-phenyl)-ethoxy]-5-(1-isobutyl-1H-pyrazol-4-yl)-pyridin-2-ylamine], 7.00.

Take `Cc1nn(C(C)(C)C(=O)NCCN2CCCC2)cc1-c1cnc(N)c(OC(C)c2c(Cl)ccc(F)c2Cl)c1` (centres unmarked) [Example 37, 2-(4-{6-Amino-5-[1-(2,6-dichloro-3-fluoro-phenyl)-ethoxy]-pyridin-3-yl}3-methyl-pyrazol-1-yl)-N-(2-pyrrolidin-1-yl-ethyl)-isobutyramide]: the negative-log Ki (pKi) was 7.15.

As to `CCOC(=O)c1cnn(-c2cnc(N)c(OC(C)c3c(Cl)ccc(F)c3Cl)c2)c1` (centres unmarked) [Example 80, 1-{6-Amino-5-[1-(2,6-dichloro-3-fluoro-phenyl)-ethoxy]-pyridin-3-yl}-1H-pyrazole-4-carboxylic acid ethyl ester], the pKi was 5.69. As to `CC(Oc1cc(-c2cnn(CCN3CCNCC3)c2)cnc1N)c1c(Cl)ccc(F)c1Cl` (centres unmarked) [Example 82, 3-[1-(2,6-Dichloro-3-fluoro-phenyl)-ethoxy]-5-[1-(2-piperazin-1-yl-ethyl)-1H-pyrazol-4-yl]-pyridin-2-ylamine], the pKi was 7.33. Same read-out and setting: for `C[C@@H](Oc1nc(-c2cnn(C3CCN(C)CC3)c2)cnc1N)c1c(Cl)ccc(F)c1Cl` [Example 69, 3-[(R)-1-(2,6-Dichloro-3-fluoro-phenyl)-ethoxy]-5-[1-(1-methyl-piperidin-4-yl)-1H-pyrazol-4-yl]-pyrazin-2-ylamine] the value was 7.52; for `CC(Oc1cc(-c2cnn(C3CCN(S(C)(=O)=O)CC3)c2)cnc1N)c1c(Cl)ccc(F)c1Cl` (centres unmarked) [Example 50, 3-[1-(2,6-Dichloro-3-fluoro-phenyl)-ethoxy]-5-[1-(1-methanesulfonyl-piperidin-4-yl)-1H-pyrazol-4-yl]-pyridin-2-ylamine], 8.00; for `CC(Oc1cc(-c2cnn(C3CN(C(C)C)C3)c2)cnc1N)c1c(Cl)ccc(F)c1Cl` (centres unmarked) [Example 97, 3-[1-(2,6-dichloro-3-fluorophenyl)ethoxy]-5-[1-(1-isopropylazetidin-3-yl)-1H-pyrazol-4-yl]pyridin-2-amine], 7.52. Turning to `CC(Oc1cc(-c2cnn(C)c2N)cnc1N)c1c(Cl)ccc(F)c1Cl` (centres unmarked) [Example 13, 5-(5-Amino-1-methyl-1H-pyrazol-4-yl)-3-[1-(2,6-dichloro-3-fluoro-phenyl)-ethoxy]-pyridin-2-ylamine], the pKi is 6.89.
